Results: US4925835A, “Aziridinyl putrescine containing compositions and their uses in treating prostate cancer” (priority 1987, dated 1990)
Read-outs that look alike come from different tables or passages of the source.

Tests used:
[1] = test system: PC-3 human prostatic carcinoma cell line; experiment: cells; assay type: cell-based; conditions: for Cell number as a percentage of the control mean cell number / Cell no.: 1 μM AZP; for Cell no.: mean ± SE; for activity at 1 µM / EC50: Homo sapiens, Prostatic carcinoma cell; for activity at 1 µM: 192 h
Protocol: FIG. 3. Effect of AZP on the growth of PC-3 cells with or without DFMO pretreatment. PC-3 cells (3×10^4) were plated in 60-mm^2 Petri dish in RPMI 1640-10% FCS and allowed to attach overnight. The following day the medium was aspirated and replaced with RPMI 1640, 10% FCS, 100 μM aminoguanidine with or without 1 mm DFMO. Forty-eight h later the medium was aspirated, the dishes were rinsed once with HBSS, and the cells were incubated with RPMI 1640-10% FCS-100 μM aminoguanidine with or without 25 μM AZP for 1 h. Following the 1-h incubation the medium was aspirated, the plates were rinsed twice with HBSS, and the incubation was continued with fresh RPMI 1640-10% FCS-100 μM aminoguanidine. At the indicated times following initial plating the cells were lifted from the plate by trypsinization and were examined for their ability to exclude trypan blue. Total cell counts were obtained with the aid of a hemocytometer, and the completeness of the removal of the cells from the dish was verified by the examination of each dish with the inverted microscope. , control; Δ, DFMO; .circle., AZP; .quadrature., DFMO+AZP. Points, means; bars, SE.
FIG. 4. Dose-effect relationship of AZP on the growth on PC-3 prostatic cancer cells. PC-3 cells (3×10^4) were plated in RPMI 1640-10% FCS in 60-mm^2 Petri dishes and allowed to attach overnight. The following day the medium was aspirated and replaced with RPMI 1640-10% FCS-100 μM aminoguanidine with or without 1 mm DFMO. Forty-eight h later the medium was aspirated, and the cells were rinsed once with HBSS and replaced with RPMI 1640-10% FCS-100 μM aminoguanidine with or without the indicated μM concentrations of AZP. After a 1-h incubation the medium was aspirated, the cells were rinsed twice with HBSS, and the incubation was continued with fresh RPMI 1640-10% FCS-100 μM aminoguanidine. Eight days following plating the cells were lifted from the plates by trypsinization and were counted with the aid of a hemocytometer and expressed as a percentage of control (100% without DFMO, 212±31×10^4; 100% with DFMO pretreatment, 219±25× 10^4 cells, respectively). , DFMO pretreated; .circle., without DFMO.
Assays of cell growth were performed by plating 3×10^4 PC-3 cells in RPMI 1640 medium with 10% FCS and allowing them to attach overnight. The following morning the medium was replaced with incubation medium consisting of RPMI 1640, 10% FCS, 100 μM aminoguanidine, 100 units/ml of penicillin, 100 μg/ml of streptomycin, and 2 mM glutamine, with or without 1 mM difluoromethylornithine. Two days later the medium was aspirated and replaced with or without 1-(4-aminobutyl) aziridine at the designated concentration usually for 1 h or for the designated length of time. Following the 1-h incubation, the medium of all groups was aspirated and the dishes were rinsed with HBSS and replaced with fresh incubation medium. Either daily or 8 days following plating, the Petri dishes were rinsed with HBSS and the cells were lifted from the plate by trypsinization. The dishes were examined for completeness of cell removal by examination with an inverted microscope. The cells were counted with a Zeiss microscope using a hemocytometer. Tumor cell population doubling time was determined by ploting the natural logarithm (ln) of the number of cells versus the days following plating. The slope of this line was determined using the Memorial Sloan-Kettering Cancer Center Clin computer system statistical analysis package. Doubling time (DT) was determined as ln 2/slope=DT. Statistical differences in cell number between groups were determined by Student's t statistic with the aid of the Memorial Sloan-Kettering Cancer Center Clin computer using the statistics program.
^a Thirty thousand PC3 cells were plated in 60mm^2 Petri dishes i
RPMI 164010% FCS. The next day the medium was aspirated and replaced with
RPMI 164010% FCS medium with 100 μM aminoguanidine with or without 1 m
DFMO. Fortyeight h later the medium was aspirated. […]

[2] = test system: uptake of [14C]putrescine into PC-3 cells; assay type: cell-based, human; conditions: PC-3 cells
Protocol: FIG. 1. Lineweaver-Burk plot of the uptake of [^14 C]putrescine by DFMO-pretreated cells. The ordinate is expressed as 1/pmol/15 min. The abscissa is expressed as 1 μM concentrations containing from 16 to 1.0 μM [^14 C]putrescine.
Fifty thousand PC-3 cells were plated in 12-well plates and 18 h later the incubation medium was removed and replaced with 1 ml or RPMI 1640 medium containing 25 mM 4-(2-hydroxyethyl)-1-piperazineethansulfonic acid buffer, 100 μM aminoguanidine, and 10% FCS. Forty-eight h later the medium was replaced with medium which contained [^14 C]putrescine in concentrations ranging from 16 to 1.0 μM with or without 5 1M 1-(4-aminobutyl) aziridine. Following incubation at 37° C. for 15 min the [^14 C]putrescine-containing medium was aspirated, and the cells were rinsed rapidly 4 times with HBSS. Following the last rinse, 1.0 ml of a solution of 0.1N NaOH was added and after a 2-h incubation at room temperature a 0.2-ml aliquot was added to 1 ml of 2% glacial acidic acid and 10 ml of Scintiverse 1 scintillation cocktail and the radioactive disintegrations were determined with a Packard Tri-Carb 300 scintillation spectrophotometer. Counting efficiency for ^14 C was 80%. Kinetic analysis of uptake was performed by graphic methods as described by Dixon and Webb, Enzymes, p. 322, New York Academic Press (1959).
In FIG. 1 a Lineweaver-Burk plot of the uptake of [^14 C]-putrescine into the PC-3 cells is presented and was used to determine the Km (intercept x axis) and Vmax (intercept y axis) for putrescine.

[3] = Alkylating activity with 4-(p-nitrobenzyl)pyridine; conditions: 100 nmol in 5.0 ml, 0.1M acetate, PH 4.5, 37° C., 2 h
Protocol: The preparation of 1-(4-aminobutyl) aziridine from 1,4-diaminobutane (putrescine) was performed by the three-step synthetic method reported by Piper et al. supra.
1-(4-aminobutyl) aziridine (100 nmol) produced an absorbance increase of 0.7 with 4-(p-nitrobenzyl)pyridine in 5.0 ml when incubated in 0.1M acetate, PH 4.5, at 37° C. for 2 h. […] The retention times were: putrescine, 19.6 min; 1-(4-aminobutyl) aziridine, 21.1 min; and histamine, 21.8 min.

[4] = 2 h incubation, DFMO pretreated, day 8
[5] = 4 h incubation, DFMO pretreated, day 8

Compound: NCCCCN1CC1 [AZP, 1-(4-aminobutyl) aziridine]
- Cell number as a percentage of the control mean cell number ([1]; 1 h incubation, DFMO pretreated, day 8): 73%
- Cell no. ([1]; 1 h incubation, no DFMO (Control), day 8): 236 ± 8 × 10^-4
- Cell number as a percentage of the control mean cell number [1, 4]: 52%
- Cell no. [1, 4]: 114 ± 10 × 10^-4
- Cell no. ([1]; 2 h incubation, no DFMO (Control), day 8): 202 ± 11 × 10^-4
- Cell number as a percentage of the control mean cell number [1, 5]: 32%
- Cell no. [1, 5]: 70 ± 8 × 10^-4
- Cell number as a percentage of the control mean cell number ([1]; 8 h incubation, DFMO pretreated, day 8): ~9%
- Cell no. ([1]; 8 h incubation, no DFMO (Control), day 8): 122 ± 16 × 10^-4
- Cell number as a percentage of the control mean cell number ([1]; 24 h incubation, DFMO pretreated, day 8): 0.9%
- Cell no. ([1]; 24 h incubation, no DFMO (Control), day 8): 30 ± 11 × 10^-4
- Cell no. as a percentage of control ([1]; DFMO-pretreated PC-3 (1 mM, 48 h), single agent 1 h (Put 100 μM or AZP 10 μM), day 8): 9%
- activity at 1 µM ([1]; read-out: Cell number as a percentage of the control mean cell number, 1 μM AZP, 1 h incubation, no DFMO (Control), day 8): 98%
- activity at 1 µM ([1]; read-out: Cell number as a percentage of the control mean cell number, 1 μM AZP, 2 h incubation, no DFMO (Control), day 8): 84%
- activity at 1 µM ([1]; read-out: Cell number as a percentage of the control mean cell number, 1 μM AZP, 4 h incubation, no DFMO (Control), day 8): 66%
- activity at 1 µM ([1]; read-out: Cell number as a percentage of the control mean cell number, 1 μM AZP, 8 h incubation, no DFMO (Control), day 8): 51%
- activity at 1 µM ([1]; read-out: Cell number as a percentage of the control mean cell number, 1 μM AZP, 24 h incubation, no DFMO (Control), day 8): ~12%
- EC50 ([1]; read-out: 50% effective dose (cell growth), PC-3, 1 h exposure, counted 8 days after plating, 1 mM DFMO pretreatment 48 h): 2.1 µM
- EC50 ([1]; read-out: 50% effective dose (cell growth), PC-3, 1 h exposure, counted 8 days after plating, without DFMO): 18 µM
- Cells per dish on day 8 following plating ([1]; PC-3, 3×10^4 plated, ±1 mM DFMO 48 h, ±25 μM AZP 1 h, mean±SD of triplicates): 123±10 ×10^4 cells per dish
- Doubling time ([1]; PC-3, 25 μM AZP 1 h or 1 mM DFMO 48 h, mean±SE): 1.53 ± 0.06 days
- Growth-inhibitory activity toward PC-3 cells (in words) ([1]; brief 1-h exposure): definitely growth inhibitory
- Type of inhibition of putrescine uptake [2]: consistent with competitive inhibition
- Ki ([2]; with or without difluoromethylornithine pretreatment, 5 1M AZP, read-out: Apparent Ki for inhibition of putrescine uptake): 1 µM
- Absorbance increase with 4-(p-nitrobenzyl)pyridine (alkylating activity) [3]: 0.7
